Where a name gives a salt, the structure may show the parent alone.

The values below come from PMC10388327, “Dual Piperidine-Based Histamine H3 and Sigma-1 Receptor Ligands in the Treatment of Nociceptive and Neuropathic Pain” (Journal of Medicinal Chemistry, 2023).

Data set [1] deals with mice. Kind of data set: spontaneous locomotor activity. The class given is in vivo. On the procedure: (§1) The high sedative activity of analgesics is considered an undesirable property, which may lead to an incorrect or ambiguous interpretation of the in vivo results. Moreover, it may limit the potential clinical application of new drug candidates.
(§2) This test was carried out according to the procedure described elsewhere.[84] The animals were injected (i.p.) with 12 at doses of 5, 15, and 30 mg/kg and placed in the activity cages individually (30 min before the experiment). The number of light-beam crossings was counted in each group during the next 30 min in 10 min intervals.

Data set [2] in a line: spontaneous locomotor activity. The class given is in vivo, mice. The note with it: mouse, in vivo, ip; estimated; read-out: ED50, decrease of spontaneous locomotor activity. On the procedure:
as §1, §2

Data set [3] is described as follows: serum metabolic stability.
Data set [4] deals with CCI-exposed mice. Kind of data set: CCI of the sciatic nerve, cold plate test. Format: in vivo, male albino Swiss CD-1 mice. The method, then:
Behavioral assessment of 12 was performed 14 days after the sciatic nerve injury. Mice were randomly assigned to four treatment groups: vehicle-treated (i.p.) and 12-treated (5, 10, and 15 mg/kg, i.p.). Baseline measurements (basal) for all tests were performed before compound injections, and the results are presented as percentages of the maximal possible effect (% MPE). We observed a significant effect of the tested compound in the von Frey test at all tested time points (30 min: F(3, 26) = 12.38, p < 0,0001; 90 min: F(3, 26) = 12.65, p < 0.0001; 180 min: F(3, 26) = 6.464, p = 0.0020). […] We also observed a significant effect of treatment on the contralateral paw 90 min after injection (F(3, 26) = 5.741, p = 0.0037).
The model of chronic constriction injury (CCI) to the sciatic nerve was established according to Bennett and Xie.[94] The surgical method was performed under isoflurate anesthesia (2% isoflurane in 100% oxygen with a flow of 1.5 L/min).[95] Below the right hipbone, a small incision was performed, and three ligatures (4/0 silk) around the sciatic nerve were made (with 1 mm spacing) until a brief twitch in the respective hind limb was observed. All mice that underwent the CCI procedure developed hypersensitivity to mechanical and thermal stimuli. Behavioral tests were performed at day 14 after injury. Compound 12 was dissolved in 10% DMSO/10% (2-hydroxypropyl)-β-cyclodextrin/water and administered i.p. at doses 5, 10, and 15 mg/kg (injection volume 10 mL/kg of body weight). The control group received the vehicle (10% DMSO/10% (2-hydroxypropyl)-β-cyclodextrin/water).
Behavioral experiments were performed between 8:00 a.m. and 2:00 p.m. Across the experiments, we compared vehicle-treated mice with 12-treated animals. […]
Sensitivity to noxious thermal stimuli was assessed with the cold plate test (Cold/Hot Plate Analgesia Meter, Columbus Instruments) as previously described.[95] […] The mice were placed on the cold plate, and the time until lifting of the injured paw was recorded.

Data set [5] relates to sigma-1 receptor (σ1R). Kind of data set: σ1R radioligand binding ([3H](+)-pentazocine). Set-up: species or system guinea pig. The note with it: ratio of σ2R Ki to σ1R Ki.
The target of data set [6] is T1, sigma-1 receptor (σ1R) (Cavia porcellus, UniProt Q60492).
T1 construct: The thawed membrane preparation of the guinea pig brain cortex was incubated; from tissue; host or cells: male Dunkin-Hartley guinea pig brain cortex membranes
T1 sequence (Q60492 whole entry): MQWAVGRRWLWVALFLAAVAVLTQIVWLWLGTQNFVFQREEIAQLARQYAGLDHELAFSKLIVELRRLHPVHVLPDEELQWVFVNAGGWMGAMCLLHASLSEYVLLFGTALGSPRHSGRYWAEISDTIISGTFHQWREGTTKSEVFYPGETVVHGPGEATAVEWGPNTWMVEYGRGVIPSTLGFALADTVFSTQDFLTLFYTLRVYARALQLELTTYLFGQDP
As to the kind of experiment: σ1R radioligand binding ([3H](+)-pentazocine). More on the design: species or system guinea pig. The note with it: read-out: σ1R Ki [nM] x̄ [CI 95%]; mean [CI 95%].

Data set [7] concerns mice. As to the kind of experiment: oxaliplatin-induced neuropathy, von Frey test. The class given is in vivo. The note with it: for pain threshold after single administration, early phase: 3 h after OXPT; for pain threshold after single administration, late phase: 7 days after OXPT. On the procedure:
The neuropathy manifests as a decrease in the pain threshold and can be observed in hours or in days after oxaliplatin administration, which is called the early or late phase of neuropathic pain, respectively. We tested the influence of compound 12 on tactile allodynia using the von Frey method 3 h and 7 days after the induction of neuropathy.[12]
Neuropathy was induced by the administration of a single dose (10 mg/kg) of oxaliplatin (OXPT) dissolved in a 5% glucose solution (Polfa Kutno, Poland). To assess the sensitivity to mechanical stimuli, the von Frey test was carried out using the electronic von Frey unit (Bioseb, France). The apparatus was supplied with a single flexible filament, which was used to apply increasing force (from 0 to 10 g) against the plantar surface of the hind paw of the mouse. […] The measurement was done before the OXPT administration and 3 h and 7 days afterward. The compounds were administrated to the animals with tactile allodynia observed as a statistically significant decrease in pain threshold. On the day of the experiment, each mouse was placed in an observation chamber with a wire mesh bottom and was allowed to habituate for 1 h. After the habituation period, the mouse pain threshold was tested three times alternately with at least 30 s gap between each measurement. The mean of these three consecutive measurements was taken as the baseline value. The mice with tactile allodynia were i.p. pretreated with the tested compound, and 30 min later, the animals were tested again according to the same procedure.[92]

The test system of data set [8] is mice. As to the kind of experiment: motor coordination in the rotarod test. To be noted: 15 mg/kg i.p.; 6, 18 and 24 rpm. Format: in vivo. The text has this:
The neurotoxicity of the new compounds can result in impaired motor functions of the experimental animals, which may subsequently cause false interpretation of the results of in vivo tests. Understandably, neurotoxicity is also the frequent reason for eliminating the tested compound from further studies. To minimize that risk, we investigated the influence of our lead structures on motor coordination in the rotarod test, which is the classical test used for assessing motor coordination and balance in rodents. It provides a quick and simple estimation of neuromuscular coordination. […] The time spent on the rotarod apparatus was 60 s for each control mouse.
The test was carried out on the semiautomatic rotarod apparatus (Rotarod apparatus Panlab/Harvard Apparatus, LE 8200, Spain) according to the method previously described in the literature.[85] The mice were trained for 3 days on the rod rotating at a constant speed of 18 rotations per minute (rpm). During each training session, the animals were placed on the rod for 3 min with an unlimited number of trials. On the test day (24 h after the final training trial), 30 min before the rotarod test, the mice were pretreated (i.p.) with the test compound (15 mg/kg). Then, the animals were tested on the rotarod revolving at 6, 18, and then 24 rpm. Motor impairments, defined as the inability to remain on the rotating rod for 1 min, were measured at each speed.

For the molecule `N#Cc1ccc(-c2ccc(OCCCN3CCC(c4ccncc4)CC3)cc2)cc1` [Compound 12, 4′-(3-(4-(Pyridin-4-yl)piperidin-1-yl)propoxy)-[1,1′-biphenyl]-4-carbonitrile Oxalate], the “influence on spontaneous locomotor activity (sedative effect)” value in data set [1] (15 mg/kg i.p.) is given as “decreased spontaneous locomotor activity, but the effect was not statistically significant”; in data set [1] (30 mg/kg i.p.), “significantly decreased locomotor activity”. In data set [2], the median effective dose (ED50) at 30 min was 22 mg/kg. Also, the serum stability assessment result in data set [3] is recorded as “moderately stable ligand”. In addition, in data set [3] (serum (made from plasma by clotting with calcium chloride)), the half-life at 24 h was 7.7 ± 1.4 h. The “analgesic effect, cold plate test” value is “analgesic effects of 12 single injection were observed at 35 min for all tested doses” in data set [4] (35 min after i.p. injection, 5, 10, 15 mg/kg); “antihyperalgesic effect was also observed 95 min after injection” in data set [4] (95 min after i.p. injection, 5, 10, 15 mg/kg); “significant only for doses 5 (p = 0.0482) and 10 mg/kg (p < 0.0001)” in data set [4] (185 min after i.p. injection). The σ2/σ1 ratio in data set [5] was found to be 2.2. For the same molecule, in data set [6], the Ki is 4.5 nM. Besides, the “pain threshold after single administration, early phase” value is 88.6 % of the baseline in data set [7] (5 mg/kg i.p.), 115.0 % of the baseline in data set [7] (10 mg/kg i.p.) and 124.3 % of the baseline in data set [7] (15 mg/kg i.p.). In addition, the “pain threshold after single administration, late phase” value was 99.8 % of the baseline in data set [7] (10 mg/kg i.p.) and 123.7 % of the baseline in data set [7] (15 mg/kg i.p.). Moreover, the “influence on motor coordination, time on rotarod” value in data set [8] is on record as “slightly affected motor coordination, but the effect was not statistically significant”.
